Results from the supplement of paper PMC13380429.

Legend:
A549-ACE2 [1] = assay: drug-induced phospholipidosis relative to tamoxifen; higher = more phospholipidosis
A549-ACE2 [2] = assay: phospholipidosis EC50; higher = less potent phospholipidosis inducer
U2OS [3] = assay: drug sensitivity score (DSS) for viability; higher = more toxic; extreme values may be limits of the assay; conditions: 72 h
HepG2 [4] = assay: as above; conditions: 72 h
Caco-2 [5] = assay: as above; conditions: 72 h
Vero E6 [6] = assay: as above; conditions: 72 h
Calu-3 [7] = assay: as above; conditions: 72 h
[8] = system: A549-ACE2 infected with SARS-CoV-2; assay: cell count relative to DMSO; higher = less toxic; conditions: 24 h
U2OS [9] = assay: relative viability EC50 (midpoint between 100% and the lowest measured viability); higher = less toxic; conditions: 72 h
HepG2 [10] = assay: as above; conditions: 72 h
Caco-2 [11] = assay: as above; conditions: 72 h
Calu-3 [12] = assay: as above; conditions: 72 h
[13] = system: A549-ACE2 infected with SARS-CoV-2; assay: SARS-CoV-2 infection rate relative to DMSO; higher = more infection; conditions: 24 h
U2OS [14] = assay: cell viability relative to DMSO; higher = less toxic; conditions: 72 h
HepG2 [15] = assay: as above; conditions: 72 h
Caco-2 [16] = assay: as above; conditions: 72 h
Vero E6 [17] = assay: as above; conditions: 72 h
Calu-3 [18] = assay: as above; conditions: 72 h
[19] = system: A549-ACE2 infected with SARS-CoV-2; assay: morphology score (similarity to uninfected cells); higher = more like uninfected cells; conditions: 24 h

CCCCc1oc2ccc(NS(C)(=O)=O)cc2c1C(=O)c1ccc(OCCCN(CCCC)CCCC)cc1 [dronedarone]
drug-induced phospholipidosis [%], A549-ACE2 [1]
Conditions	0.3 µM	0.833333 µM	3.33333 µM	6.66667 µM	10 µM	30 µM
24 h	5.9	23.1	79.1	94.6	47.9	35
48 h	9.08	19	96	120	–	–
72 h	7.98	17	94.1	122	–	–

Conditions	SARS-CoV-2 infection rate [%]	cell count [%]	cell viability [%]	morphology score	phospholipidosis EC50 [µM]
A549-ACE2 [2], 24 h	–	–	–	–	0.926
A549-ACE2 [2], 48 h	–	–	–	–	2.18
A549-ACE2 [2], 72 h	–	–	–	–	2.34
Caco-2 [16], 1 nM	–	–	101	–	–
Caco-2 [16], 10 nM	–	–	102	–	–
Caco-2 [16], 100 nM	–	–	94.7	–	–
Caco-2 [16], 1000 nM	–	–	102	–	–
Caco-2 [16], 10000 nM	–	–	44.6	–	–
Calu-3 [18], 1 nM	–	–	102	–	–
Calu-3 [18], 10 nM	–	–	108	–	–
Calu-3 [18], 100 nM	–	–	108	–	–
Calu-3 [18], 1000 nM	–	–	102	–	–
Calu-3 [18], 10000 nM	–	–	5.7	–	–
HepG2 [15], 1 nM	–	–	110	–	–
HepG2 [15], 10 nM	–	–	101	–	–
HepG2 [15], 100 nM	–	–	110	–	–
HepG2 [15], 1000 nM	–	–	99.6	–	–
HepG2 [15], 10000 nM	–	–	17.6	–	–
U2OS [14], 1 nM	–	–	100	–	–
U2OS [14], 10 nM	–	–	107	–	–
U2OS [14], 100 nM	–	–	98.1	–	–
U2OS [14], 1000 nM	–	–	102	–	–
U2OS [14], 10000 nM	–	–	23	–	–
Vero E6 [17], 1 nM	–	–	108	–	–
Vero E6 [17], 10 nM	–	–	105	–	–
Vero E6 [17], 100 nM	–	–	107	–	–
Vero E6 [17], 1000 nM	–	–	100	–	–
Vero E6 [17], 10000 nM	–	–	61.9	–	–
[8], 0.1 µM	–	103	–	–	–
[8], 0.3 µM	–	100	–	–	–
[8], 1 µM	–	111	–	–	–
[8], 3 µM	–	112	–	–	–
[13], 0.1 µM	95	–	–	–	–
[13], 0.3 µM	94	–	–	–	–
[13], 1 µM	65	–	–	–	–
[13], 3 µM	13	–	–	–	–
[19], 0.1 µM	–	–	–	0.12	–
[19], 0.3 µM	–	–	–	0.11	–
[19], 1 µM	–	–	–	0.64	–
[19], 3 µM	–	–	–	0.81	–

Conditions	drug sensitivity score	relative viability EC50 [µM]
Caco-2 [5]	2.8	–
Caco-2 [11]	–	3.38
Calu-3 [7]	5.1	–
Calu-3 [12]	–	3.28
HepG2 [4]	4.6	–
HepG2 [10]	–	3.13
U2OS [3]	4.1	–
U2OS [9]	–	3.29
Vero E6 [6]	1.8	–
